Laboratory results: patent US20110107445A1, “Efficient Insertion of DNA Into Embryonic Stem Cells” (ITI Scotland Limited, priority 2008, published 2011)
Each block holds one compound with its values, some of them ahead of it.

Tests used:
CYP3A4 [1] = assay type: in vitro ADME, mouse
From the text: FIG. 24. 7-BQ oxidation by liver (A) and intestinal (B) microsomes from C57BL/6J, hCYP3A4/3A7_Cyp3a KO, hCYP3A4_Cyp3a KO and Cyp3a KO mice Data generated according to CXR approved Laboratory Method Sheet Fluor-0005. Apart from bars for untreated transgenic/knock-out mice, which represent a single measurement, data are mean±SD (n=3 for C57BL/6J microsomes; n=2 for microsomes from PCN treated transgenic strains and human liver microsomes (HLM)). Activities of samples from treated hCYP3A4/3A7_Cyp3a KO and hCYP3A4_Cyp3a KO mice were compared to that from Cyp3a KO line with an unpaired t test (two tailed P values). 3 homozygous male mice per strain were used throughout. Two mice were administered with 5-Pregnen-3β-ol-20-one-16α-carbonitrile (PCN) (100 mg/kg/2 daily doses/IP) and one mouse was given the vehicle (corn oil). […] Wild type (WT) and Cyp3a KO animals were included as controls (n=3 for WT, pooled; n=1-2 for Cyp3a KO). Animals were sacrificed 24 hrs post final dose. Liver and duodenal microsomes were analysed for CYP3A4 expression and catalytic activity.

CYP3A4 [2] = biological target: T1, CYP3A4 (Homo sapiens, UniProt P08684); assay: In vitro oxidation of 7-BQ by pooled human liver microsomes; assay type: in vitro ADME
T1 construct: tissue Gentest 452172; host or cells: pooled (male) human liver microsomes
From the text: FIG. 24. 7-BQ oxidation by liver (A) and intestinal (B) microsomes from C57BL/6J, hCYP3A4/3A7_Cyp3a KO, hCYP3A4_Cyp3a KO and Cyp3a KO mice Data generated according to CXR approved Laboratory Method Sheet Fluor-0005. Apart from bars for untreated transgenic/knock-out mice, which represent a single measurement, data are mean±SD (n=3 for C57BL/6J microsomes; n=2 for microsomes from PCN treated transgenic strains and human liver microsomes (HLM)). Activities of samples from treated hCYP3A4/3A7_Cyp3a KO and hCYP3A4_Cyp3a KO mice were compared to that from Cyp3a KO line with an unpaired t test (two tailed P values).

CYP3A4 [3] = assay: In vitro DBF oxidation by mouse liver and intestinal microsomes; assay type: in vitro ADME
Description: The total reaction volume was 1 mL. Fluorescein fluorescence was recorded using an F-4500 fluorescence spectrophotometer (Hitachi), excitation 485 nm and emission 538 nm. Fluorescein standard (10 μL, 25 μM) was injected into the reaction cuvette approximately 150 sec after the addition of NADPH. Slopes of the time course of the product accumulation were calculated using FL-Solution 2.0 (Hitachi).

[4] = Body and liver weights of PCN treated mice; assay type: in vivo, mouse; conditions: for Liver per body weight, percentage of C57BL/6J from the same treatment group / Liver per body weight, percentage of control group of the same strain / Body weight / Liver per body weight / Liver weight: PCN 100 mg/kg daily for 2 days IP; for Body weight / Liver per body weight / Liver weight: mean ± SD
Description: (§1) The mice received either corn oil (vehicle) or PCN 100 mg/kg, daily, for 2 days by intraperitoneal (IP) injection according to the experimental design described in Table 3. Dosing solutions were prepared at CXR Biosciences on the day of dosing by adding the vehicle (corn oil) to the requisite quantity of the PCN. The concentration of PCN was the concentration of supplied chemical, without any correction for purity. Excess dosing solution was stored at approximately 2-8° C. for possible future analysis. The volume of dosing solution was 10 mL/kg bodyweight. Approximately 24 h after the second dose, the mice were euthanized using a rising concentration of CO2. Blood was collected at termination by cardiac puncture into lithium/heparin coacted tubes for plasma preparation.
The body weight of each mouse was recorded at the start of the study and immediately prior to termination. Bodyweights were recorded electronically or manually and records of these weights were stored in the study file.
In order to weigh the liver, the gall bladder was removed, and then the liver was removed and weighed. Two samples of liver (approximately 5 mm^3) were immediately flash frozen in a cryovial in liquid nitrogen then stored at approximately −70° C. for RNA analysis. The remaining liver was weighed and immediately used for subcellular fractionation to homogenates and microsomes.

CYP3A4 [5] = assay: Western blot of liver and intestinal microsomes for CYP3A4 protein; assay type: in vivo, mouse
Description: as §1
The duodenum (first 10 cm from the base of the stomach) was removed and flushed with ice cold PBS containing a protease inhibitor cocktail (Roche). The first 2 cm was but and placed into a 2 ml cryvial containing 1 ml of TRIZOL (Sigma), flash frozen immediately, and then stored at approximately −70° C. for Taqman® analysis. The remainder of the duodenum was placed in a 1 ml cryovial and flash frozen immediately, and then stored at approximately −70°.
Liver microsomes were produced by preparing subcellular fractions from fresh livers. The livers were processed as described above to homogenates and microsomes. Aliquots from liver samples were stored at approximately −70° prior to analysis.
Frozen small intestines were homogenised in SET with protease cocktail inhibitor (Roche) and PMSF (mM) using a Polytron homogeniser. The homogenates were subjected to subcellular fractionation as described above. The microsomal fractions were stored at approximately −70° prior to analysis.
Liver microsomes from C57BL/6J, hCYP3A4/3A7_Cyp3a KO, hCYP3A4_Cyp3a KO and Cyp3a KO mice were analysed by Western blotting using an antibody specific to CYP3A4 and the results are shown in FIG. 22. There was a clear protein band for CYP3A4 on the Western blot of liver and intestinal microsomes from vehicle treated hCYP3A4/3A7_Cyp3a KO mice. […]

[6] = Plasma clinical chemistry of PCN treated mice; assay type: in vivo, mouse; conditions: PCN treated hCYP3A4_Cyp3a KO mice compared to treated C57BL/6J mice
Description: as §1
Plasma samples were produced by removing red blood cells by centrifugation (2,000-3,000 rpm for 10 min at 8-10° C.). The supernatant (plasma) was stored on ice prior to clinical chemistry analysis. The pellet was discarded. Plasma samples from all animals were analysed for triglycerides, alanine aminotransferase, alkaline phosphatase, aspartate aminotransferase, albumin, cholesterol, bilirubin (total and direct), high and low density lipoproteins using the COBAS Integra 400+ (Roche), and the results are shown in FIGS. 19-21. […]

CYP3A7 mRNA = conditions: mouse, in vivo
Description: 3 homozygous male mice per strain were used throughout. Two mice were administered with 5-Pregnen-3β-ol-20-one-16α-carbonitrile (PCN) (100 mg/kg/2 daily doses/IP) and one mouse was given the vehicle (corn oil). […] Wild type (WT) and Cyp3a KO animals were included as controls (n=3 for WT, pooled; n=1-2 for Cyp3a KO). Animals were sacrificed 24 hrs post final dose. Liver and duodenal microsomes were analysed for CYP3A4 expression and catalytic activity.
as §1, with “Approximately 24 h after the second dose, the mice were euthanized using a rising concentration of CO2. Blood was collected at termination by cardiac puncture into lithium/heparin coacted tubes for plasma preparation.” left out
For each target gene a reaction with the lowest dCt value was identified and that dCt value was subtracted from all other dCt, giving so-called ddCt (ddCt of the sample with the lowest dCt (endogenous reference) equals 0). Finally, the normalised relative amount of target gene (RQ) was calculated using the following formula: RQ=(2̂(−ddCt))*100 as shown in Table 9.

T1 sequence (P08684 whole entry): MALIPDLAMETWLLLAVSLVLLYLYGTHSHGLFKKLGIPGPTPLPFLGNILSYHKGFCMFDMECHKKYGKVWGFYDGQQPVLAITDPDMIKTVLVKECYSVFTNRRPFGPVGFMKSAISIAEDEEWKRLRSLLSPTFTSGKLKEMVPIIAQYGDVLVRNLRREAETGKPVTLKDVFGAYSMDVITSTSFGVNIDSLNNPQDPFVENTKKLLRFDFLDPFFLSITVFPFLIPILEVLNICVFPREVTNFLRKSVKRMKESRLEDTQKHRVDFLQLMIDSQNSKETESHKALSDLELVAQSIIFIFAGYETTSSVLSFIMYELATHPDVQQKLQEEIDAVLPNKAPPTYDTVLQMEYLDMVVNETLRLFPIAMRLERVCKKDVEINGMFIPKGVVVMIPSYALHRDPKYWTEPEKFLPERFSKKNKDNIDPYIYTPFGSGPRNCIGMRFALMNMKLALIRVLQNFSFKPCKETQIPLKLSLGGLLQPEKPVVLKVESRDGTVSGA

- 7-BQ oxidation (CYP3A4 [1]): marked decrease
- 7-BQ oxidation, recovery of activity (CYP3A4 [1]): small and not statistically significant
- 7-BQ oxidation reaction rate (CYP3A4 [2]): low reaction rate
SMILES: c1ccc(COc2ccc3cccnc3c2)cc1 [7-BQ, 7-benzyloxyquinoline]

- DBF oxidation reaction rate (CYP3A4 [3]; hCYP3A4/3A7_Cyp3a KO microsomes compared to hCYP3A4_Cyp3a KO): higher
- DBF oxidation activity (CYP3A4 [3]; liver and intestinal samples from untreated humanised mice compared to Cyp3a KO): little increase
- DBF oxidation activity, difference humanised vs Cyp3a KO (CYP3A4 [3]; samples from the PCN treated groups): significantly more pronounced
SMILES: O=C(OCc1ccccc1)c1ccccc1-c1c2ccc(=O)cc-2oc2cc(OCc3ccccc3)ccc12 [DBF]

- 7-BQ oxidation activity in response to PCN (CYP3A4 [1]): no increase in activity
- Liver weight ([4]; C57BL/6J mice, n=3): 1.10 ± 0.06 g
- Liver weight ([4]; Cyp3a KO mice, n=2): 1.22 ± 0.15 g
- Liver weight ([4]; hCYP3A4/3A7_Cyp3a KO mice, n=2): 1.06 ± 0.27 g
- Liver weight ([4]; hCYP3A4_Cyp3a KO mice, n=2): 1.00 ± 0.09 g
- hepatic and intestinal CYP3A4 expression (CYP3A4 [5]; both humanised lines, treatment with PCN): strong induction
- intestinal CYP3A4 protein upregulation (Western blot) (CYP3A4 [5]; intestinal microsomes, humanised mice, compared with liver upregulation): less pronounced
- liver CYP3A4 protein (Western blot) (CYP3A4 [5]; liver microsomes, humanised mice, PCN 100 mg/kg/2 days/IP): strong upregulation
- plasma level of cholesterol, low and high density lipoproteins, alanine transferase and alkaline phosphatase [6]: statistically significant increases
- CYP3A7 mRNA (Q-PCR) (CYP3A7 mRNA): possible induction of CYP3A7
SMILES: CC(=O)[C@H]1[C@H](C#N)C[C@H]2[C@@H]3CC=C4C[C@@H](O)CC[C@]4(C)[C@H]3CC[C@@]21C [PCN, 5-Pregnen-3β-ol-20-one-16α-carbonitrile]
- Liver per body weight, percentage of C57BL/6J from the same treatment group ([4]; C57BL/6J mice): 100 ± 2.1 %
- Liver per body weight, percentage of control group of the same strain ([4]; C57BL/6J mice): 131 ± 2.7 %
- Body weight ([4]; C57BL/6J mice, n=3): 19.30 ± 0.82 g
- Liver per body weight ([4]; C57BL/6J mice, n=3): 5.70 ± 0.12 %
- liver/body weight ratio ([4]; C57BL/6J mice, PCN administration vs control): significantly (P<0.001) increased
- Liver per body weight, percentage of C57BL/6J from the same treatment group ([4]; Cyp3a KO mice): 89 ± 4.4 %
- Liver per body weight, percentage of control group of the same strain ([4]; Cyp3a KO mice): 121 ± 6.0 %
- Body weight ([4]; Cyp3a KO mice, n=2): 24.05 ± 1.77 g
- Liver per body weight ([4]; Cyp3a KO mice, n=2): 5.06 ± 0.25 %
- liver/body weight ratio ([4]; all treated transgenic mice vs treated wild type, significant (P<0.05) only in Cyp3a KO group): decreased liver/body weight ratio compared to the treated wild type
- Liver per body weight, percentage of C57BL/6J from the same treatment group ([4]; hCYP3A4/3A7_Cyp3a KO mice): 97 ± 21.1 %
- Liver per body weight, percentage of control group of the same strain ([4]; hCYP3A4/3A7_Cyp3a KO mice): 120 ± 26.1 %
- Body weight ([4]; hCYP3A4/3A7_Cyp3a KO mice, n=2): 19.15 ± 0.64 g
- Liver per body weight ([4]; hCYP3A4/3A7_Cyp3a KO mice, n=2): 5.53 ± 1.20%
- Liver per body weight, percentage of C57BL/6J from the same treatment group ([4]; hCYP3A4_Cyp3a KO mice): 93 ± 4.6 %
- Liver per body weight, percentage of control group of the same strain ([4]; hCYP3A4_Cyp3a KO mice): 113 ± 5.6 %
- Body weight ([4]; hCYP3A4_Cyp3a KO mice, n=2): 19.00 ± 0.71 g
- Liver per body weight ([4]; hCYP3A4_Cyp3a KO mice, n=2): 5.27 ± 0.26%
